Measured values taken from patent US20080300235A1, “FXR Agonists for Reducing LOX-1 Expression” (Wyeth, priority 2007, published 2008).

Tests used:
LOX-1 [1] = test: Hepatic LOX-1 mRNA expression in LDLR-/- mice fed a western diet; format: in vivo, mouse; conditions: liver, LDLR-/- (LDLRKO) mice, western diet 7 days, increasing concentrations of compound, FIG. 1
From the text: (§1) Since LOX-1 is regulated by oxLDL, LOX-1 mRNA expression was monitored in liver from LDLR−/− (LDLRKO) mice fed a western diet for 7 days.

CD36 = test: Expression of oxLDL hepatic scavenger receptor CD36 (FIG. 3); format: in vivo, mouse; conditions: specificity control
From the text: as §1
Importantly, the regulation of LOX-1 by FXR was specific, since expression of another oxLDL hepatic scavenger receptor, CD36, was not affected by compound A (FIG. 3).

VCAM-1 [2] = test: Expression of LOX-1 target gene VCAM-1 (FIG. 2); format: in vivo, mouse
VCAM-1 [3] = test: Hepatic VCAM-1 gene expression by real-time PCR in FXR KO or wildtype mice; format: in vivo, mouse; conditions: male FXR KO or wildtype mice, chow diet with 0.5% chenodeoxycholic acid (CA), 30 mpk orally daily 7 days, FIG. 6
Description: (§2) Male FXR deficient (FXR KO) or wildtype mice on a chow diet supplemented with 0.5% chenodeoxycholic acid (CA) were treated orally daily with 30 mpk of Compound A for 7 days, and hepatic gene expression of LOX-1 and VCAM-1 was determined by real-time PCR.

soluble LOX-1 (sLOX-1) = test: Serum soluble LOX-1 (sLOX-1) by ELISA based assay in mouse strains; format: in vivo; conditions: FIG. 5B
From the text: Moreover, the expression of soluble LOX-1 (sLOX-1) in the serum was also monitored using an ELISA based assay after Compound A treatment. […] (FIG. 5B).

LOX-1 [4] = test: Hepatic LOX-1 gene expression by real-time PCR in FXR KO or wildtype mice; format: in vivo, mouse; conditions: male FXR KO or wildtype mice, chow diet with 0.5% chenodeoxycholic acid (CA), 30 mpk orally daily 7 days, FIG. 6
Description: as §2

LOX-1 [5] = test: LOX-1 expression in liver and kidney of diabetic KKAy mice; format: in vivo, mouse
Description: To determine whether FXR agonists could block LOX-1 gene expression under other settings, the regulation of LOX-1 by FXR was studied in the diabetic mouse strain, KKAy. […] The renal regulation of LOX-1 was also determined since FXR is also expressed in the kidney.

CC(C)OC(=O)C1=CN(C(=O)c2ccc(F)c(F)c2)CC(C)(C)c2c1[nH]c1ccccc21 [Compound A, isopropyl 3-(3,4-difluorobenzoyl)-1,1-dimethyl-1,2,3,6-tetrahydroazepino[4,5-b]indole-5-carboxylate]
LOX-1 mRNA induction by the western diet (LOX-1 [1]): dose dependently inhibited
CD36 expression (CD36): not affected
VCAM-1 (LOX-1 target gene) expression (VCAM-1 [2]): significantly inhibited
inhibition of hepatic VCAM-1 gene expression, FXR KO vs wildtype (VCAM-1 [3]): dependent upon FXR
sLOX-1 reduction in FXR KO mouse strain (soluble LOX-1 (sLOX-1); FXR KO mouse strain): dependent upon FXR
serum sLOX-1 (soluble LOX-1 (sLOX-1); various mouse strains, high fat diet, 30 mpk orally daily for 7 days): significantly reduced
inhibition of hepatic LOX-1 gene expression, FXR KO vs wildtype (LOX-1 [4]): dependent upon FXR
hepatic LOX-1 expression (LOX-1 [5]; chow diet, 7 days treatment, FIG. 4A): significant repression
renal LOX-1 expression (LOX-1 [5]; kidney, FIG. 4B): significantly inhibited
